Entries after “also recorded” stand apart in the source; their conditions may differ.
Key:
[1] = molecular target: mushroom tyrosinase (mTYR) (Agaricus bisporus, UniProt C7FF04); assay: Kinetics of mTYR inhibition (Lineweaver-Burk plots); format: biochemical; details: for mode of mTYR inhibition: Lineweaver-Burk plots, L-tyrosine; for Vmax: independent of inhibitor concentration
Procedure: Lineweaver-Burk double reciprocal plots were used to determine their inhibitory modes of action. Kinetic analyses were carried out using four concentrations of DHIT derivatives 1b (0, 0.0625, 0.125, or 0.25 μM) and 1f (0, 1, 2, or 4 μM) in the presence of different concentrations of L-tyrosine (0.5, 1, 2, 4, 8, or 16 mM for 1b and 1, 2, 4, or 8 mM for 1f). Lineweaver-Burk double reciprocal plots produced four different lines with different slopes, corresponding to the four concentrations, for each derivative. […] KM values were 1.515, 7.846, 15.740, and 23.586 mM at […], and 3.758, 4.892, 5.206, and 8.127 mM at 0, 1, 2, and 4 μM of 1f, respectively. […] The binding abilities of compounds 1b and 1f to the active site of tyrosinase were also supported by in silico docking simulation results (Figs. 5 and 6).
Lineweaver-Burk plots were used to determine modes of mTYR inhibition. Compounds 1b or 1f (10 μL, final concentrations: 0, 0.0625, 0.125, or 0.25 μM for 1b and 0, 1, 2 or 4 μM for 1f) and mTYR solution (20 μL, 150 units) were added to a 96-well plate containing 170 μL of a mixture containing aqueous L-tyrosine solution at final concentrations of 0.5, 1.0, 2.0, 4.0, 8.0, or 16 mM for 1b or 1.0, 2.0, 4.0, or 8.0 mM for 1f; aqueous L-tyrosine solution, distilled water, and 50 mM potassium phosphate buffer (pH 6.5) in the ratio 10:9:10. Initial rates of dopachrome formations in reaction mixtures were calculated by measuring increases in optical density at 492 nm (ΔOD492/min) using a microplate reader (VersaMax^TM, Molecular Devices, Sunnyvale, CA, USA). Maximum velocities of tyrosinase-L-tyrosine reactions were determined using Lineweaver-Burk plots (inverse of reaction velocity (1/V) versus the inverse of L-tyrosine concentration (1/[S])) obtained using 4 – 5 different concentrations of L-tyrosine. Modes of tyrosinase inhibition were determined using convergence points of plots.

B16F10 cells [2] = assay: Cell viability, EZ-cytox assay; format: cell-based, murine; details: up to 20 μM, 48 h
Procedure: Before examining inhibitory effects of compounds 1b and 1f on cellular tyrosinase activity, we examined their cytotoxic effects on B16F10 murine cells using the EZ-cytox assay (Daeil Lab Service, Seoul, Korea). After B16F10 cells had been cultured for 24 h, cells were treated with different concentrations (0, 1, 2, 5, 10 or 20 μM) of 1b or 1f for 48 h in a humidified atmosphere. Optical densities (ODs) were measured at 450 nm using a microplate reader.
Cell viability assays were performed at 37 °C as previously described with minor modification using the EZ-cytox assay. In brief, B16F10 melanoma cells were seeded in 96-well plates at a density of 1 × 10^4 cells/well and incubated in a humidified 5% CO2 atmosphere for 24 h at 37 °C. Cells were then treated with compounds 1b or 1f at 0, 1, 2, 5, 10, or 20 µM/well for 48 h. EZ-cytox solution (10 µL) (Daeil Lab Service, Seoul, Korea) was then added to each well and incubated for 1 h at 37 °C. Cell viabilities were assessed by measuring absorbances at 450 nm using a microplate reader (VersaMax^TM, Molecular Devices, Sunnyvale, CA, USA). All experiments were independently conducted three times.

[3] = test system: mushroom tyrosinase (mTYR); assay: Mushroom tyrosinase inhibition assay; format: biochemical, Agaricus bisporus; details: for IC50: mushroom tyrosinase, L-tyrosine substrate
Procedure: The tyrosinase inhibitory activity assays on the synthesized DHIT derivatives 1a – 1 k was performed using mushroom tyrosinase (mTYR), as previously described with minor modification. […] The optical densities of dopachrome produced during incubation were measured using a microplate reader (VersaMax™, Molecular Devices, Sunnyvale, CA, USA) at 492 nm. […] All experiments were conducted in triplicate. To calculate the tyrosinase inhibitory activities, the following formula was used: % inhibition = [(1− (A/B)) × 100], where A is test sample optical density and B is the optical density of the non-treated control.
IC50 values were calculated by plotting linear regression curves of percentage inhibitions versus derivative concentrations. The negative control was obtained by adding dimethyl sulfoxide (DMSO) instead of a DHIT derivative.

B16F10 cells [4] = assay: Extracellular melanin (melanin level in medium) of B16F10 cells; format: cell-based, murine; details: 48 h; for melanin levels in media compared with kojic acid: α-MSH + IBMX; for melanin levels in media: 5, 10, 20 μM, α-MSH 1 μM + IBMX 200 μM
Procedure: To determine whether melanin levels in cell culture media were influenced by compounds 1b or 1f, melanin contents in B16F10 cell culture media after treatments with derivatives at different concentrations in the presence of α -MSH and IBMX for 48 h were analyzed by measuring optical densities at 405 nm using a microplate reader.
The inhibitory effects of compounds 1b and 1f on intracellular melanin contents were investigated as previously described. B16F10 cells were seeded at a density of 1 × 10^5 cells/well in 6-well plates and incubated in a humidified 5% CO2 atmosphere for 24 h at 37 °C. […] For extracellular melanin contents, the optical density of the cell culture media was directly measured at 405 nm. On the other hand, for intracellular melanin contents, the following procedure was performed. Briefly, after washing twice with PBS, adherent cells were detached by incubation in Trypsin/EDTA for 1 min. Pellets were dissolved in 100 μL of 1 N NaOH and then incubated for 1 h at 60 °C to dissolve the melanin. Intracellular melanin was quantified by measuring optical densities at 405 nm using a microplate reader (VersaMax^TM, Molecular Devices, Sunnyvale, CA, USA). Results were normalized versus cell pellet total protein using BCA protein assay reagent using BSA as the standard (Thermo Scientific, Rockford, IL, USA). The intracellular melanin contents were calculated using the following equation: (ΔODsample/ΔODcontrol) × 100%; where ΔODsample = the optical density of the test compound, and ΔODcontrol = the optical density of control. Experiments were performed in triplicate.

Sequence of mushroom tyrosinase (mTYR) (Agaricus bisporus, UniProt C7FF04) (C7FF04 1-392): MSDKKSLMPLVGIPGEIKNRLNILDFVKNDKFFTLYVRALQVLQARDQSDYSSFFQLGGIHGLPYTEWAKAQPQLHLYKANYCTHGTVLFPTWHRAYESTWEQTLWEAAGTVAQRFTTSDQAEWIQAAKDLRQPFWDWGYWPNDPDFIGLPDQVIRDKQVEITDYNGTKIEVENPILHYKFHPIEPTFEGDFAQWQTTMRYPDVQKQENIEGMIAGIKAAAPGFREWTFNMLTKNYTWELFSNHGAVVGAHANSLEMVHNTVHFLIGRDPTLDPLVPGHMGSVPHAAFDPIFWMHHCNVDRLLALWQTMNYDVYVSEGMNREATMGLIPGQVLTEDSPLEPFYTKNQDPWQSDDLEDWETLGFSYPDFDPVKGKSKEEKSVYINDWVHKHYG

SMILES	mode of mTYR inhibition [1]	Ki ([1]; at 0.0625 μM of 1b) [µM]	Ki ([1]; at 0.125 μM of 1b) [µM]	Ki ([1]; at 0.25 μM of 1b) [µM]	Vmax [1] [mM/min]	cytotoxic effect on B16F10 cells (B16F10 cells [2])	mushroom tyrosinase inhibition compared with kojic acid [3]	IC50 [3] [µM]	fold more potent tyrosinase inhibition than MHY773 ([3]; ratio of IC50 values) [fold]	melanin levels in media compared with kojic acid (B16F10 cells [4]; 1b at 5 μM)	melanin levels in media (B16F10 cells [4])	Ki ([1]; at 1 μM of 1f) [µM]	Ki ([1]; at 2 μM of 1f) [µM]	Ki ([1]; at 4 μM of 1f) [µM]	fold stronger tyrosinase inhibitor than kojic acid ([3]; ratio of IC50 values) [fold]	melanin levels in media compared with kojic acid (B16F10 cells [4]; 1f at 20 μM)
O=c1/c(=C/c2ccc(O)cc2O)sc2n1CCN=2 [Compound 1b, (Z)-2-(2,4-Dihydroxybenzylidene)-5,6-dihydroimidazo[2,1-b]thiazol-3(2H)-one]	competitive inhibitors; also recorded: competitively inhibited	0.015	0.0133	0.0172	0.0126	without perceptible cytotoxicity; also recorded: Neither 1b nor 1f had a significant cytotoxic effect	inhibited mTYR more than kojic acid	0.88 ± 0.91	~3.3	suppressed these increases more than kojic acid at 20 μM	significantly and concentration-dependently suppressed these increases					
COc1ccc(/C=c2\sc3n(c2=O)CCN=3)cc1O [Compound 1f, (Z)-2-(3-Hydroxy-4-methoxybenzylidene)-5,6-dihydroimidazo[2,1-b]thiazol-3(2H)-one]	competitive inhibitors; also recorded: competitively inhibited				0.0103	without perceptible cytotoxicity; also recorded: Neither 1b nor 1f had a significant cytotoxic effect	inhibited mTYR more than kojic acid	17.1 ± 1.01			significantly and concentration-dependently suppressed these increases	3.31	5.19	3.44	4.9	suppressed these increases more than kojic acid at 20 μM
